# Laboratory results from patent publication US20190369122A1, “METABOLIC DISORDERS” (priority 2016, published 2019).
# B1: recombinant p38γ (Abcam, ab125651) (protein)
# chain: MSSPPPARSGFYRQEVTKTAWEVRAVYRDLQPVGSGAYGAVCSAVDGRTGAKVAIKKLYRPFQSELFAKRAYRELRLLKHMRHENVIGLLDVFTPDETLDDFTDFYLVMPFMGTDLGKLMKHEKLGEDRIQFLVYQMLKGLRYIHAAGIIHRDLKPGNLAVNEDCELKILDFGLARQADSEMTGYVVTRWYRAPEVILNWMRYTQTVDIWSVGCIMAEMITGKTLFKGSDHLDQLKEIMKVTGTPPAEFVQRLQSDEAKNYMKGLPELEKKDFASILTNASPLAVNLLEKMLVLDAEQRVTAGEALAHPYFESLHDTEDEPQVQKYDDSFDDVDRTLDEWKRVTYKEVLSFKPPRQLGARVSKETPL
# Columns and labels:
# HEK293 cells = test: Signaling in HEK293 cells (immunoblot); type: cell-based, human; conditions: for inhibition of imidazole propionate-induced phosphorylation of p62 and S6K1: 10 μM, 30 min pretreatment, ImP 100 μM 1 h
# Procedure: (§1) Snap-frozen liver and harvested cells were lysed in buffer containing 50 mM Tris-HCl (pH 7.4), 150 mM NaCl, 1 mM EDTA, 1 mM Na3VO4, 20 mM NaF, 10 mM glycerophosphate, 1 mM PMSF, 10% glycerol, 1% Triton X-100 and protease inhibitor cocktail. For immunoprecipitation, the cell lysates were obtained in 0.3% CHAPS-containing lysis buffer, sonicated and centrifuged at 20,000 g for 15 min at 4° C., and the supernatant was incubated with 20 μl of anti-FLAG beads (Sigma) at 4° C. for 4 h under gentle agitation.
# HEK293 cells (ATCC CRL-1573) were grown and maintained in high-glucose (4.5 g/l glucose) DMEM with 10% (v/v) FBS. […] 24 h after transfection (with plasmids or siRNA as indicated), HEK293 cells cultured in poly-L-lysine-coated 60 mm dishes were rinsed twice with DMEM without FBS and incubated in serum-free DMEM for 18 h. HEK293 cells were then washed once with EBSS and incubated in EBSS for 1 h.
# p38α/p38β = conditions: cited from earlier work
# p38γ/p38δ = conditions: cited from earlier work
# primary hepatocytes = test: Insulin signaling in primary hepatocytes (immunoblot); type: cell-based, mouse; conditions: rapamycin 20 nM, Torin 1 50 nM, ImP 100 μM
# Procedure: as §1
# Primary hepatocytes were isolated from C57BL/6J mice by digesting liver with perfusion of collagenase type IV as described previously. After perfusion, 16×10^5 cells were plated on collagen-coated 60 mm dishes in Dulbecco's modified Eagle's medium (DMEM)/F12 supplemented with fetal bovine serum (FBS), penicillin/streptomycin and 100 nM dexamethasone. After 4 h, the medium was changed to DMEM/F12 containing penicillin/streptomycin.
# [1] = target: recombinant p62 (Abcam, ab95320), Q13501
molecule,measurement,setting,value
"Cc1ccc(-n2nc(C(C)(C)C)cc2NC(=O)Nc2ccc(OCCN3CCOCC3)c3ccccc23)cc1 [BIRB796, 1-(5-tert-butyl-2-p-tolyl-2H-pyrazol-3-yl)-3-[4-(2-morpholin-4-yl-ethoxy)naphthalen-1-yl]urea]",inhibition of imidazole propionate-induced phosphorylation of p62 and S6K1,HEK293 cells; amino acid-deprived HEK293,inhibited
same,inhibition of p38α/p38β,p38α/p38β,inhibits the entire p38 subfamily
same,inhibition of p38γ/p38δ,p38γ/p38δ,inhibits the entire p38 subfamily
"CC(C)C[C@H](N)C(=O)O [Leucine, reference compound]",S6K1 phosphorylation,"HEK293 cells; HEK293, after only 15 min, transient",increased
same,time to mTORC1 activation,HEK293 cells; absence of amino acids,≤ 15 min
"NC1(c2ccc(-c3nc4ccn5c(=O)[nH]nc5c4cc3-c3ccccc3)cc2)CCC1 [MK2206, reference compound]",effect on imidazole propionate-induced Akt activation,HEK293 cells,efficiently blocked
same,effect on imidazole propionate-induced S6K1 phosphorylation,HEK293 cells; absence of amino acids,did not affect
same,effect on imidazole propionate-induced S6K1 phosphorylation,HEK293 cells; presence of amino acids,inhibition
Oc1ccc(-c2nc(-c3ccncc3)c(-c3ccc(F)cc3)[nH]2)cc1 [SB202190],inhibition of imidazole propionate-induced phosphorylation of p62 and S6K1,HEK293 cells; amino acid-deprived HEK293,not
same,inhibition of p38α/p38β,p38α/p38β,inhibited
"N[C@@H](Cc1c[nH]cn1)C(=O)O [histidine, reference compound]",phosphorylation of p62 or S6K1,"HEK293 cells; amino acid-deprived HEK293, 100 μM for 1 h",neither
"CCC(=O)N1CCN(c2ccc(-n3c(=O)ccc4cnc5ccc(-c6cnc7ccccc7c6)cc5c43)cc2C(F)(F)F)CC1 [torin 1, 1-[4-[4-(1-oxopropyl)-1-piperazinyl]-3-(trifluoromethyl)phenyl]-9-(3-quinolinyl)-benzo[h]-1,6-naphthyridin-2(1H)-one, reference compound]",effect on imidazole propionate-induced S6K1 phosphorylation,primary hepatocytes,reversed
same,inhibition of imidazole propionate-induced reduction of IRS,primary hepatocytes,inhibited
"insulin: insulin from Sigma-Aldrich, used at 5 nM","mTORC1 activation, as measured by S6K1 phosphorylation","HEK293 cells; HEK293, insulin 5 nM, absence of amino acids or imidazole propionate",did not lead to mTORC1 activation
B1,"p62 phosphorylation (T269 and S272), in vitro kinase assay",[1],"p62 phosphorylation, at T269 and S272, was induced by p38γ in the presence of 50 µM ATP, which was further increased with 200 µM ATP"
